# Results published in patent publication US9181234B2, “Antibacterial compounds” (priority 2010, dated 2015).
# Key:
# [1] = tested on: Enterococcus faecalis (Isolate ID ATCC 29212); assay: Antibacterial activity, MIC, E. faecalis; type: cell-based; conditions: Enterococcus faecalis, ATCC29212; Gram positive strain; broth microdilution or agar dilution
# How it was run: (§1)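 Readout is the MIC, established according to CLSI standard M7-A7 using either agar dilution or broth microdilution.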
# [2] = tested on: Haemophilus influenzae (Isolate ID ATCC 49247); assay: Antibacterial activity, MIC, H. influenzae; type: cell-based; conditions: Haemophilus influenzae, ATCC49247; Gram negative strain; broth microdilution or agar dilution
# How it was run: as §1
# [3] = tested on: Streptococcus pyogenes (Isolate ID ATCC 51339); assay: Antibacterial activity, MIC, S. pyogenes; type: cell-based; conditions: Streptococcus pyogenes, ATCC51339, Gram positive strain; broth microdilution or agar dilution
# How it was run: as §1
# [4] = tested on: Staphylococcus aureus (Isolate ID ATCC 29213); assay: Antibacterial activity, MIC, S. aureus; type: cell-based; conditions: Staphylococcus aureus, ATCC29213, Gram positive strain; broth microdilution or agar dilution
# How it was run: as §1
# physchem = conditions: kinetic from dmso stock
# How it was run: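 DMSO doubling dilutions were diluted twenty-fold into 100 mM citrate (pH 4), PBS (pH 7.4) or carbonate-bicarbonate (pH 9). After 24 h equilibration at room temperature, absorbance was read at 620 nm. The reported value is the highest concentration without measurable precipitate.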
# [5] = pH 7.4, aqueous buffer, Solubility (pH 7.4)
# [6] = pH 7.4, aqueous buffer, Solubility Range
# [7] = pH 9, aqueous buffer, Max Solubility
# [8] = pH 9, aqueous buffer, Solubility Range (maximum solubility)
# [9] = pH 7.4, aqueous buffer, Max Solubility
# [10] = pH 7.4, aqueous buffer, Solubility Range (maximum solubility)
Structure (SMILES),MIC [1] [mg/L],MIC [2] [mg/L],MIC [3] [mg/L],MIC [4] [mg/L],solubility at 24 h (physchem; [5]) [mg/mL],solubility at 24 h (physchem; [6]) [mg/mL],solubility at 24 h (physchem; [7]) [mg/mL],solubility at 24 h (physchem; [8]) [mg/mL],solubility at 24 h (physchem; [9]) [mg/mL],solubility at 24 h (physchem; [10]) [mg/mL],"solubility at 24 h (physchem; pH 4, aqueous buffer, Max Solubility) [mg/mL]","solubility at 24 h (physchem; pH 4, aqueous buffer, Solubility Range (maximum solubility)) [mg/mL]"
CCNC(=O)Nc1nc2cc(-c3cnc(N4CCC(C)(C(=O)O)CC4)nc3)cc(-c3cnc(OCC)s3)c2s1 [Compound 78],≤ 0.25,> 16,0.25 to 1,0.25 to 1,0.4,0.4 to 0.8,≥ 0.8,> 0.8,,,,
CCNC(=O)Nc1nc2cc(-c3cnc(N4CCC(C)(C(=O)O)CC4)nc3)cc(-c3ccn(C)c(=O)c3)c2s1 [Compound 79],1 to 16,> 16,1 to 16,> 16,≥ 0.8,> 0.8,,,≥ 0.8,> 0.8,,
CCNC(=O)Nc1nc2cc(-c3cnc(N4CCC(C)(C(=O)O)CC4)nc3)cc(-c3cc(=O)n(CCOC)cn3)c2s1 [Compound 80],1 to 16,1 to 16,1 to 16,> 16,0.4,0.4 to 0.8,,,0.4,0.4 to 0.8,,
CCNC(=O)Nc1nc2cc(-c3cnc(N4CCC(C)(C(=O)O)CC4)nc3)cc(-c3cncc(OC)n3)c2s1 [Compound 81],≤ 0.25,1 to 16,≤ 0.25,≤ 0.25,0.2,0.0125 to 0.4,0.4,0.4 to 0.8,,,,
CCNC(=O)Nc1nc2cc(-c3cnc(N4CCC(C)(C(=O)O)CC4)nc3)cc(-c3ccc(CC#N)cn3)c2s1 [Compound 82],≤ 0.25,0.25 to 1,≤ 0.25,≤ 0.25,0.2,0.0125 to 0.4,≥ 0.8,> 0.8,,,,
CCNC(=O)Nc1nc2cc(-c3cnc(N4CCC(C)(C(=O)O)CC4)nc3)cc(-c3cnc(CC)cn3)c2s1 [Compound 83],≤ 0.25,0.25 to 1,≤ 0.25,≤ 0.25,0.2,0.0125 to 0.4,≥ 0.8,> 0.8,,,,
CCNC(=O)Nc1nc2cc(-c3cnc(N4CCC(C)(C(=O)O)CC4)nc3)cc(-c3nccnc3C)c2s1 [Compound 84],≤ 0.25,1 to 16,0.25 to 1,1 to 16,0.2,0.0125 to 0.4,≥ 0.8,> 0.8,,,,
CCNC(=O)Nc1nc2cc(-c3cnc(N4CCC(C)(C(=O)O)CC4)nc3)cc(-c3cc(C)c(F)cn3)c2s1 [Compound 85],≤ 0.25,0.25 to 1,≤ 0.25,≤ 0.25,0.2,0.0125 to 0.4,≥ 0.8,> 0.8,,,,
CCNC(=O)Nc1nc2cc(-c3cnc(N4CCC(C)(C(=O)O)CC4)nc3)cc(-c3nccnc3OC)c2s1 [Compound 86],≤ 0.25,1 to 16,≤ 0.25,≤ 0.25,≥ 0.8,> 0.8,,,≥ 0.8,> 0.8,,
"CCNC(=O)Nc1nc2cc(-c3cnc(N4CCC(C)(C(=O)O)CC4)nc3)cc(C3CC3)c2s1 [Compound 87, 1-{5-[7-Cyclopropyl-2-(3-ethyl-ureido)-benzothiazol-5-yl]-pyrimidin-2-yl}-4-methyl-piperidine-4-carboxylic acid]",≤ 0.25,1 to 16,0.25 to 1,0.25 to 1,≥ 0.8,> 0.8,,,≥ 0.8,> 0.8,,
CCNC(=O)Nc1nc2cc(-c3cnc(N4CCC(C)(C(=O)O)CC4)nc3)cc(-c3ccncc3)c2s1 [Compound 89],≤ 0.25,1 to 16,0.25 to 1,0.25 to 1,≥ 0.8,> 0.8,,,≥ 0.8,> 0.8,,
CCNC(=O)Nc1nc2cc(-c3cnc(N4CCC(C)(C(=O)O)CC4)nc3)cc(-c3nccc(OC)c3C#N)c2s1 [Compound 90],≤ 0.25,0.25 to 1,≤ 0.25,≤ 0.25,0.1,0.0125 to 0.4,,,0.1,0.0125 to 0.4,,
"CCNC(=O)Nc1nc2cc(-c3cnc(N4CCC(C)(C(=O)O)CC4)nc3)cc(C(=O)N(C)CC)c2s1 [Compound 91, 1-[5-[2-(ethylcarbamoylamino)-7-[ethyl(methyl)carbamoyl]-1,3-benzothiazol-5-yl]pyrimidin-2-yl]-4-methyl-piperidine-4-carboxylic acid]",1 to 16,> 16,> 16,> 16,≥ 0.8,> 0.8,,,≥ 0.8,> 0.8,,
CCNC(=O)Nc1nc2cc(-c3cnc(N4CCC(C)(C(=O)O)CC4)nc3)cc(-c3cc(C)c(C#N)cn3)c2s1 [Compound 92],≤ 0.25,0.25 to 1,≤ 0.25,≤ 0.25,0.00625,< 0.0125,,,,,0.0125,0.0125 to 0.4
CCNC(=O)Nc1nc2cc(-c3cnc(N4CCC(CC)(C(=O)O)CC4)nc3)cc(-c3cnccn3)c2s1 [Compound 99],≤ 0.25,1 to 16,≤ 0.25,≤ 0.25,≥ 0.8,> 0.8,,,,,,
CCNC(=O)Nc1nc2cc(-c3cnc(N4CCC(CC)(C(=O)O)CC4)nc3)cc(-c3cc(C#N)ccn3)c2s1 [Compound 100],≤ 0.25,1 to 16,≤ 0.25,≤ 0.25,0.0125,0.0125 to 0.4,,,,,,
CCNC(=O)Nc1nc2cc(-c3cnc(N4CCC(CC)(C(=O)O)CC4)nc3)cc(-c3nccc(C)n3)c2s1 [Compound 101],≤ 0.25,1 to 16,≤ 0.25,≤ 0.25,≥ 0.8,> 0.8,,,,,,
CCNC(=O)Nc1nc2cc(-c3cnc(N4CCC(CC)(C(=O)O)CC4)nc3)cc(-c3cc(OC)ccn3)c2s1 [Compound 102],≤ 0.25,1 to 16,≤ 0.25,≤ 0.25,≥ 0.8,> 0.8,,,,,,
CCNC(=O)Nc1nc2cc(-c3cnc(N4CCC(CC)(C(=O)O)CC4)nc3)cc(-c3ncccc3C#N)c2s1 [Compound 104],≤ 0.25,1 to 16,≤ 0.25,≤ 0.25,0.0125,0.0125 to 0.4,,,,,,
CCNC(=O)Nc1nc2cc(-c3cnc(N4CCC(CC)(C(=O)O)CC4)nc3)cc(-c3ccc(C#N)cn3)c2s1 [Compound 105],≤ 0.25,1 to 16,≤ 0.25,≤ 0.25,≥ 0.8,> 0.8,,,≥ 0.8,> 0.8,,
CCNC(=O)Nc1nc2cc(-c3cnc(N4CCC(CC)(C(=O)O)CC4)nc3)cc(-c3ncnc4[nH]ccc34)c2s1 [Compound 106],≤ 0.25,1 to 16,≤ 0.25,0.25 to 1,≥ 0.8,> 0.8,,,≥ 0.8,> 0.8,,
